In one assay the target is T1, rat BCAT cytosolic form (Rattus norvegicus, UniProt P54690).
T1 construct: made in house; host or cells: E. coli BL21(DE3)
T1 sequence (P54690 1-411): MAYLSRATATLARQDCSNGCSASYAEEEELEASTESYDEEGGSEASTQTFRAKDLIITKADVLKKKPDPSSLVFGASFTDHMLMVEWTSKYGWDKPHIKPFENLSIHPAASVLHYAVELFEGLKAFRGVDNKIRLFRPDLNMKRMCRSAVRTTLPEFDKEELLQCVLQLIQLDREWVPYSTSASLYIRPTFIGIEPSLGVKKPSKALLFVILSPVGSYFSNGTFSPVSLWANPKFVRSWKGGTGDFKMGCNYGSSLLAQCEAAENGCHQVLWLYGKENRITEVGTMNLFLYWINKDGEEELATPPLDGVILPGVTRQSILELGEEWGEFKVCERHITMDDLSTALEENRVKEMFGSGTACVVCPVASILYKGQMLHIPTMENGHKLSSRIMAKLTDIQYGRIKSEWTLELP
Nature of the assay: In vitro coupled enzyme assay (glutamate dehydrogenase, NADH formation), rat BCATc. It counts as biochemical. Particulars: recombinant rat BCATc, 37° C., 25 mM phosphate buffer pH 7.8; several values in a cell = repeat determinations; read-out: RrBCATc. As to the method: In vitro enzyme assay—human Branched Chain Amino Acid Aminotransferase cytosolic form (hBCATc) and mitochondrial form (hBCATm) as well as rat BCAT cytosolic form were assayed at 37° C. in 25 mM phosphate buffer pH 7.8. In addition, 2 mM DTT and 12.5 mM […] were added to the assay mixture. A coupling enzyme assay was used to monitor the production of glutamate. The formation of NADH from NAD+ at […] was followed on a 96-well plate Molecular Devices plate reader.
The following components were used in this coupled assay: 4 mM ADP, 1 mM NAD+, 750 μM L-Leucine, 500 μM α-ketoglutarate, 10 μM pyridoxal phosphate, 1 unit glutamate dehydrogenase, and 1.25 μg of the appropriate BCAT enzyme. Inhibitions by compounds were assayed by adding various concentrations to this coupled assay procedure as a DMSO stock up to a 5% v/v DMSO/buffer ratio.
Enzyme Preparation—humanBCATc and ratBCATc were expressed in BL21(DE3) cells. A growing culture of cells was induced with 1 mM IPTG at room temperature overnight. These cells were harvested by centrifugation at 10,000 g for 20 minutes. The supernatant was discarded, and the cells were stored at −80° C. until needed. The protein was purified by the following method. The cell paste was resuspended in extraction buffer (0.1 M phosphate, pH 8.0, with 0.01 M Tris-HCL and 5 mM TCEP and then lysed on a French Press at 1000 psi. The lysate was centrifuged at 10,000 g for 15 minutes, and the pellet was discarded. The supernatant was loaded onto a Hitrap Chelating column previously charged with 0.1 M NiSO4 and washed with 3 to 4 column volumes of extraction buffer. The column was then washed with 0.01 Tris, pH 7.5, 10% glycerol, 150 mM NaCl, 5 mM TCEP for two column volumes. The column was then further washed with two column volumes of 0.1 M phosphate, pH 6.0, 0.01 M Tris, 10% glycerol and 750 mM NaCl. Finally, the column was washed with two column volumes of the same buffer plus 50 mM imidazole. The BCAT enzyme was then eluted with the same buffer but with 350 mM imidazole. The eluant was then dialyzed overnight against 10 mM phosphate buffer pH 8.0, 10% glycerol, and 5 mM TCEP. The dialyzed protein was then loaded onto a Q-sepharose column and eluted using a salt gradient. Active fractions were collected and further purified on a Superose-12 column to yield pure BCAT protein.

Assay [1] has as its target T2, human Branched Chain Amino Acid Aminotransferase cytosolic form (hBCATc) (Homo sapiens, UniProt P54687).
T2 construct: made in house; host or cells: E. coli BL21(DE3)
T2 sequence (P54687 1-386): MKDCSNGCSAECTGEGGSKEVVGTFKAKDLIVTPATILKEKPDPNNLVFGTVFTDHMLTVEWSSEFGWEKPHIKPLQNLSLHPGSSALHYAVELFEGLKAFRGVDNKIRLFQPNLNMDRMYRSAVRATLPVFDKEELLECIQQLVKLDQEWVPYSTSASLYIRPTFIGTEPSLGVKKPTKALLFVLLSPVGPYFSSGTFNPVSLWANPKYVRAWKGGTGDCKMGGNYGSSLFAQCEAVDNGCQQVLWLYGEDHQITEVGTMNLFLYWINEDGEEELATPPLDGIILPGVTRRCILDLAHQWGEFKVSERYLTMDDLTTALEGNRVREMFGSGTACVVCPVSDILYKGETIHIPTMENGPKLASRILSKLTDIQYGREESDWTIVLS
Nature of the assay: In vitro coupled enzyme assay (glutamate dehydrogenase, NADH formation), human BCATc. It is filed as biochemical. Particulars: recombinant human BCATc, 37° C., 25 mM phosphate buffer pH 7.8; several values in a cell = repeat determinations; read-out: RhBCATc. In a few lines:
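At 37 °C in 25 mM phosphate pH 7.8 with 2 mM DTT, 1.25 μg His-tag-purified E. coli-expressed BCAT transaminated 750 μM L-leucine with 500 μM α-ketoglutarate and 10 μM PLP. Glutamate was coupled via glutamate dehydrogenase (1 mM NAD+, 4 mM ADP) to NADH formation at 340 nm. Compounds were added in DMSO up to 5% v/v.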

Where “and” joins values, the source holds several entries; their conditions need not be identical. Equal values may be shown once.

`O=C(NNS(=O)(=O)c1ccccc1F)c1ccc2oc3ccccc3c2c1` [Example 92, 2-Dibenzofurancarboxylic acid, 2-[(2-fluorophenyl)sulfonyl]hydrazide]: the IC50 was 1.1 µM on rat BCAT cytosolic form and 12.1 µM in assay [1].
As to `O=C(NNS(=O)(=O)c1c(F)cccc1F)c1ccc2oc3ccccc3c2c1` [Example 93, 2-Dibenzofurancarboxylic acid, 2-(2,6-difluorophenylsulfonyl)hydrazide], the values for the IC50 (at rat BCAT cytosolic form; in assay [1]) were 5.9 µM and 63.5 µM, respectively.
In the same order, the values of `O=C(NNS(=O)(=O)c1ccccc1Br)c1ccc2oc3ccccc3c2c1` [Example 94, 2-Dibenzofurancarboxylic acid, 2-[(2-bromophenyl)sulfonyl]hydrazide] are 0.72 µM and 5.5 µM.
The matching figures for `O=C(NNS(=O)(=O)c1cccc(Br)c1)c1ccc2oc3ccccc3c2c1` [Example 95, 2-Dibenzofurancarboxylic acid, 2-[(3-bromophenyl)sulfonyl]hydrazide]: 0.3 µM and 2.9 µM.
As for `Cc1ccc(S(=O)(=O)NNC(=O)c2ccc3oc4ccccc4c3c2)cc1[N+](=O)[O-]` [Example 96, 2-Dibenzofurancarboxylic acid, 2-[(4-methyl-3-nitrophenyl)sulfonyl]hydrazide], the IC50 at rat BCAT cytosolic form is 36.3 µM; in assay [1], 51.6 µM.
Consider `O=C(NNS(=O)(=O)c1cc(C(F)(F)F)ccc1Cl)c1ccc2oc3ccccc3c2c1` [Example 97], for which the IC50 came out at 36.4 µM at rat BCAT cytosolic form and 67.5 µM in assay [1].
In the same order, the values of `O=C(NNS(=O)(=O)c1ccccc1OC(F)(F)F)c1ccc2oc3ccccc3c2c1` [Example 98, 2-Dibenzofurancarboxylic acid, 2-[(2-trifluoromethoxyphenyl)sulfonyl]hydrazide] are 0.65 µM and 2.8 µM.
`O=C(NNS(=O)(=O)c1ccc(Br)cc1OC(F)(F)F)c1ccc2oc3ccccc3c2c1` [Example 99, 2-Dibenzofurancarboxylic acid, 2-[(4-bromo-2-trifluoromethoxyphenyl)sulfonyl]-hydrazide]: the IC50 was determined as 35.1 µM at rat BCAT cytosolic form and 46.3 µM in assay [1].
As for `O=C(NNS(=O)(=O)c1ccccc1[N+](=O)[O-])c1ccc2oc3ccccc3c2c1` [Example 100, 2-Dibenzofurancarboxylic acid, 2-[(2-nitrophenyl)sulfonyl]hydrazide], the values for the IC50 (on rat BCAT cytosolic form; in assay [1]) were 4 µM and 28.1 µM, respectively.
Regarding `O=C(O)c1ccc(S(=O)(=O)NNC(=O)c2ccc3oc4ccccc4c3c2)cc1` [Example 101, 2-Dibenzofurancarboxylic acid, 2-[(4-carboxyphenyl)sulfonyl]hydrazide], the IC50 on rat BCAT cytosolic form stood at 22 µM; in assay [1], 48.1 µM.
For the compound `COc1cccc2cc(C(=O)NNS(=O)(=O)c3cccc(Cl)c3)oc12` [Example 102, 2-Benzofurancarboxylic acid, 7-methoxy-, 2-[(3-chlorophenyl)sulfonyl]hydrazide], the IC50 on rat BCAT cytosolic form worked out at 0.37 µM; in assay [1], 6 µM.
For `COc1cccc2cc(C(=O)NNS(=O)(=O)c3cccc(F)c3)oc12` [Example 103, 2-Benzofurancarboxylic acid, 7-methoxy-, 2-[(3-fluorophenyl)sulfonyl]hydrazide], the IC50 turned out to be 0.85 µM at rat BCAT cytosolic form and 12 µM in assay [1].
In the same order, the values of `COc1cccc2cc(C(=O)NNS(=O)(=O)c3cccc(Cl)c3Cl)oc12` [Example 104, 2-Benzofurancarboxylic acid, 7-methoxy-, 2-[(2,3-dichlorophenyl)sulfonyl]-hydrazide] are 1.4 µM and 23 µM.
`COc1cccc2cc(C(=O)NNS(=O)(=O)c3ccc(F)c(Cl)c3)oc12` [Example 105, 2-Benzofurancarboxylic acid, 7-methoxy-, 2-[(3-chloro-4-fluorophenyl)sulfonyl]-hydrazide]: the values for the IC50 (on rat BCAT cytosolic form; in assay [1]) were 3.3 µM and 54 µM, respectively.
Consider `COc1ccc(Cl)cc1S(=O)(=O)NNC(=O)c1cc2cccc(OC)c2o1` [Example 106, 2-Benzofurancarboxylic acid, 7-methoxy-, 2-[(5-chloro-2-methoxyphenyl)-sulfonyl]hydrazide], for which the IC50 at rat BCAT cytosolic form is 5.6 µM; in assay [1], 42 µM.
In the same order, the values of `COc1ccc(Br)cc1S(=O)(=O)NNC(=O)c1cc2cccc(OC)c2o1` [Example 107, 2-Benzofurancarboxylic acid, 7-methoxy-, 2-[(5-bromo-2-methoxyphenyl)-sulfonyl]hydrazide] are 7.5 µM and 41 µM.
Turning to `CCc1ccc(S(=O)(=O)NNC(=O)c2cc3cccc(OC)c3o2)cc1` [Example 108, 2-Benzofurancarboxylic acid, 7-methoxy-, 2-[(4-ethylphenyl)sulfonyl]hydrazide], the IC50 on rat BCAT cytosolic form is 5.6 µM; in assay [1], 57 µM.
`COc1cccc(S(=O)(=O)NNC(=O)c2cc3cccc(OC)c3o2)c1` [Example 109, 2-Benzofurancarboxylic acid, 7-methoxy-, 2-[(3-methoxyphenyl)sulfonyl]-hydrazide]: the IC50 on rat BCAT cytosolic form stood at 0.46 µM; in assay [1], 9.8 µM.
Turning to `O=C(NNS(=O)(=O)c1cccc(Cl)c1Cl)c1ccc2oc3ccccc3c2c1` [Example 110, 2-Dibenzofurancarboxylic acid, 2-[(2,3-dichlorophenyl)sulfonyl]hydrazide], the IC50 was determined as 0.72 µM on rat BCAT cytosolic form and 11.1 µM in assay [1].
Take `Cc1cccc(S(=O)(=O)NNC(=O)c2ccc3ccccc3c2)c1` [Example 111, 2-Naphthalenecarboxylic acid, 2-[(3-methylphenyl)sulfonyl]hydrazide]: the IC50 on rat BCAT cytosolic form was 0.47 µM; in assay [1], 0.47 µM and 2.8 µM.
As for `Cc1ccc(S(=O)(=O)NNC(=O)c2ccc3ccccc3c2)cc1` [Example 112, 2-Naphthalenecarboxylic acid, 2-[(4-methylphenyl)sulfonyl]hydrazide], the IC50 on rat BCAT cytosolic form is 6.2 µM; in assay [1], 14.6 µM.
In the same order, the values of `O=C(NNS(=O)(=O)c1ccccc1C(F)(F)F)c1ccc2ccccc2c1` [Example 113] are 0.53 µM and 4.1 µM.
In the same order, the values of `O=C(NNS(=O)(=O)c1ccc(C(F)(F)F)cc1)c1ccc2ccccc2c1` [Example 114] are 26.5 µM and 59.7 µM.
The matching figures for `O=C(NNS(=O)(=O)c1ccc(F)c(Cl)c1)c1ccc2ccccc2c1` [Example 115, 2-Naphthalenecarboxylic acid, 2-[(3-chloro-4-fluorophenyl)sulfonyl]hydrazide]: 5.2 µM and 59.9 µM.
Turning to `COc1cccc(S(=O)(=O)NNC(=O)c2ccc3ccccc3c2)c1` [Example 116, 2-Naphthalenecarboxylic acid, 2-[(3-methoxyphenyl)sulfonyl]hydrazide], the IC50 at rat BCAT cytosolic form stood at 1.2 µM; in assay [1] it was 8.2 µM.

The record behind these values is patent publication US20050004167A1, “Branched chain amino acid-dependent aminotransferase inhibitors and their use in the treatment of neurodegenerative diseases” (WARNER-LAMBERT COMPANY LLC, priority 2001, published 2005).
